{
  "source": "patent US8557770B2",
  "about": "“Method of preventing or reducing scarring of human skin” (Pharmecosse Ltd., priority 2000, dated 2013)",
  "key": {"[1]": {"test_system": "dermal fibroblast cell lines", "assay": "Myofibroblast number in dermal fibroblast cell lines in GFD medium with PPAR agonist", "assay_type": "cell-based, human", "conditions": "for Mean percentage reduction in myofibroblast number compared to GFD medium alone: 14 days", "description": "Dermal fibroblast cell lines were derived from 3 patients and seeded individually onto sterile coverslips. […] Medium was refreshed twice weekly and cultures were harvested for immunohistochemical staining for α-smooth muscle actin after 14 days. The number of myofibroblasts was counted and calculated as a percentage of the total cells present, and since the ability of each cell line to differentiate into myofibroblasts varied extensively, the results were normalised as follows. Results are expressed as the mean percentage reduction in myofibroblast number for each treatment as compared to the proportion of myofibroblasts identified in GFD medium alone for that cell line. The error bars represent plus or minus one standard deviation."}, "[2]": {"molecular_target": "T1, PPARγ (Homo sapiens, UniProt P37231)", "T1 sequence (P37231 1-505)": "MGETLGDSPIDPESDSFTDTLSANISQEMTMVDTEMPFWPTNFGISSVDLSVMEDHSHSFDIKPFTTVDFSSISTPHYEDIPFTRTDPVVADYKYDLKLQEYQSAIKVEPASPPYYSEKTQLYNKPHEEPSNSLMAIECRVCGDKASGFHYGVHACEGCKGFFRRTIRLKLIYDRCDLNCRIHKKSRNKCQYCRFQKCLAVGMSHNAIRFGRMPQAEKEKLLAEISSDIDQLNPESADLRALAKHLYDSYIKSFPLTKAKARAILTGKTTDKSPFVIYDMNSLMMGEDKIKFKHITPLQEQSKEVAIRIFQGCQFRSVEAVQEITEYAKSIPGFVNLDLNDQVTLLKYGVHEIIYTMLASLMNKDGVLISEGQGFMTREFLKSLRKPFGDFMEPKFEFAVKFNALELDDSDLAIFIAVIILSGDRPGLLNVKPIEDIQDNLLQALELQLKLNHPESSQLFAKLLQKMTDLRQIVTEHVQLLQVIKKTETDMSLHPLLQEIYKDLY", "conditions": "read-out: Published C50, cited from earlier work"}, "[3]": {"test_system": "PPAR", "conditions": "Table 3: other general PPAR agonists; read-out: Published C50; cited from earlier work"}, "[4]": {"test_system": "fibroblast cultures from normal scars", "assay": "In vitro myofibroblast differentiation assay (α-smooth muscle actin staining), normal scar fibroblasts", "assay_type": "cell-based, human", "description": "(§1) One of the most important cell types in both normal and pathological scar formation is the myofibroblast. These cells, which differentiate from the unwounded tissue cell type (fibroblasts), are responsible for laying down scar tissue. Indeed myofibroblasts remain present in hypertrophic scars up to four years after the original wounding event. An in vitro assay was accordingly developed to identify actives which prevent or reduce myofibroblast formation and thus identify actives which are effective in reducing and/or preventing scar tissue formation.\n(§2) Fibroblast cultures were initiated from normal skin, normal scars, hypertrophic scars (HTS) and burns scars.\n(§3) Each culture was split into seven parts (A to G) and grown in the following different growth media:\n(§4) (A) was grown in normal growth medium (hereinafter referred to as NGM) which consisted of Dulbecco's modified Eagles Medium (DMEM) plus 10% Foetal Calf Serum (FCS);\n(§5) (B) was grown in growth factor depleted medium (hereinafter referred to as GF depleted) which is NGM that is depleted of active polypeptide growth factors including TGFP. It is prepared by treating FCS with a reducing agent in order to attack and cleave the disulphide bonds that determine the conformation and thus the biological activity of the polypeptide growth factors;\n(§6) (D) (D1-D4) were grown in growth factor depleted medium plus 1 ng/ml-100 ng/ml of insulin-like Growth Factor-I) (IGF-I) (hereinafter referred to as GF depleted+IGF-I); (E) (E1-E3) were grown in growth factor depleted medium plus 50 ng/ml-[…] of insulin-like Growth Factor II (IGF-II) (hereinafter referred to as GF depleted+IGFII); (F) (F1F3) were grown in growth factor depleted medium plus 25 ng/ml to 100 ng/ml of basic fibroblast growth factor (bFGF) (hereinafter referred to as GF depleted and bFGF); […]\n(§7) The fibroblasts were grown in these media (which was replenished twice weekly) for fourteen days, fixed and stained immunohistochemically using an antibody specific for α-smooth muscle actin (a marker of myofibroblasts). […] The number of these was counted, as was the total number of cells present, and the proportion of myofibroblasts was then calculated. In this manner, the number of myofibroblasts present in each culture was determined as a percentage of the total number of cells in the culture population.\n(§8) Fibroblast cultures were initiated from normal scars (NS) and hypertrophic scars (HTS). […] The number of myofibroblasts was calculated as a percentage of the total cell population and the results are shown in FIGS. 1 and 2 of the drawings.\n(§9) Fibroblasts cultures were initiated from normal and hypertrophic scars. […] The number of myofibroblasts were counted and calculated as a percentage of the total cells present."}, "[5]": {"test_system": "fibroblast cultures from hypertrophic scars (HTS)", "assay": "In vitro myofibroblast differentiation assay (α-smooth muscle actin staining), hypertrophic scar fibroblasts", "assay_type": "cell-based, human", "conditions": "hypertrophic scar fibroblasts", "description": "as §1, §2, §3, §4, §5, §6, §7, §8, §9"}, "[6]": {"test_system": "fibroblast cultures from burns scars", "assay": "In vitro myofibroblast differentiation assay (α-smooth muscle actin staining), burns scar fibroblasts", "assay_type": "cell-based, human", "conditions": "14 days", "description": "as §1, §2, §3, §4, §5\n(D) (D1-D4) were grown in growth factor depleted medium plus 1 ng/ml-100 ng/ml of insulin-like Growth Factor-I) (IGF-I) (hereinafter referred to as GF depleted+IGF-I); (E) (E1-E3) were grown in growth factor depleted medium plus 50 ng/ml-[…] of insulin-like Growth Factor II (IGF-II) (hereinafter referred to as GF depleted+IGFII); (F) (F1F3) were grown in growth factor depleted medium plus 25 ng/ml to 100 ng/ml of basic fibroblast growth factor (bFGF) (hereinafter referred to as GF depleted and bFGF);\n(G) (G1-G3) were grown in growth factor depleted medium plus 25 ng/ml to 100 ng/ml of platelet derived growth factor (PDGF) (hereinafter referred to as GF depleted+PDGF).\nThe fibroblasts were grown in these media (which was replenished twice weekly) for fourteen days, fixed and stained immunohistochemically using an antibody specific for α-smooth muscle actin (a marker of myofibroblasts). The stain caused α-smooth muscle actin to fluoresce green and accordingly cells that had stained green were identified as myofibroblasts. The number of these was counted, as was the total number of cells present, and the proportion of myofibroblasts was then calculated. In this manner, the number of myofibroblasts present in each culture was determined as a percentage of the total number of cells in the culture population."}, "[7]": {"conditions": "Table 5: natural PPARγ agonists"}, "[8]": {"conditions": "NGM plus 0.5 ng/ml TGFβ1, 5 days (FIG. 3)"}},
  "note": "Where two headings read alike, the source gives them in different places.",
  "data": [
    {"molecule": "CC1(COc2ccc(CC3SC(=O)NC3=O)cc2)CCCCC1", "note": "(racemic) [Ciglitazone, (±)-5-[4-(1-methyl-cyclohexylmethoxy)-benzyl]-thiazolidine-2,4-dione]", "values": [
      {"measurement": "Mean percentage reduction in myofibroblast number compared to GFD medium alone", "setting": "[1]; 0.5×10^−7M", "value": 79, "unit": "%"},
      {"measurement": "Mean percentage reduction in myofibroblast number compared to GFD medium alone", "setting": "[1]; 10^−6M", "value": 57, "unit": "%"},
      {"measurement": "Mean percentage reduction in myofibroblast number compared to GFD medium alone", "setting": "[1]; 10^−7M", "value": 53, "unit": "%"}
    ]},
    {"molecule": "CCCCCC=CC=CC(O)CCCCCCCC(=O)O", "note": "(stereo not drawn) [9-HODE, 9-hydroxy-10,12-octadecadienoic acid]", "values": [
      {"measurement": "EC50", "setting": "[2]; [7]", "value": "~20", "unit": "µM"}
    ]},
    {"molecule": "CCCCCC(O)C=CC=CCCCCCCCC(=O)O", "note": "(stereo not drawn) [13-HODE, 13-hydroxy-9,11-octadecadienoic acid]", "values": [
      {"measurement": "EC50", "setting": "[2]; [7]", "value": "~20", "unit": "µM"}
    ]},
    {"molecule": "CCCCC[C@H](O)/C=C/C=C\\C/C=C\\C/C=C\\CCCC(=O)O", "note": "[15-HETE, 15-hydroxy-eicosatetraenoic acid]", "values": [
      {"measurement": "EC50", "setting": "[2]; [7]", "value": "~10", "unit": "µM"}
    ]},
    {"molecule": "CCCCCC=CC=C1C(=O)C=C[C@@H]1CC=CCCCC(=O)O", "note": "[15-deoxy-Δ^12,14 prostaglandin J2]", "values": [
      {"measurement": "EC50", "setting": "[2]; [7]", "value": "~3", "unit": "µM"}
    ]},
    {"molecule": "CCCCC/C=C\\C/C=C\\C/C=C\\C/C=C\\CCCC(=O)O", "note": "[Arachidonic acid]", "values": [
      {"measurement": "EC50", "setting": "[2]; [7]", "value": "~20", "unit": "µM"}
    ]},
    {"molecule": "CC(C)(Oc1ccc(CCNC(=O)c2ccc(Cl)cc2)cc1)C(=O)O", "note": "[Bezafibrate, 2-[4-[2-[(4-chlorobenzoyl)-amino]ethyl]phenoxy]-2-methyl propanoic acid]", "values": [
      {"measurement": "EC50", "setting": "[3]", "value": 60, "unit": "µM"}
    ]},
    {"molecule": "CCOC(=O)C(C)(C)Oc1ccc(Cl)cc1", "note": "[Clofibrate]", "values": [
      {"measurement": "EC50", "setting": "[2]; Table 4: strong agonists for PPAR receptors other than PPARγ, weak action on PPARγ", "value": "~500", "unit": "µM"}
    ]},
    {"molecule": "CC/C=C\\C/C=C\\C/C=C\\C/C=C\\C/C=C\\CCCC(=O)O", "note": "[Eicosapentaenoic acid (EPA), Eicosapentaenoic acid]", "values": [
      {"measurement": "EC50", "setting": "[2]; [7]", "value": "~20", "unit": "µM"}
    ]},
    {"molecule": "CCCc1c(OCCCOc2ccc(OCC(=O)O)cc2)ccc(C(C)=O)c1O", "note": "[L-165041]", "values": [
      {"measurement": "EC50", "setting": "[3]", "value": 5.5, "unit": "µM"}
    ]},
    {"molecule": "CCCc1c(OCCCCc2nnn[nH]2)ccc(C(C)=O)c1O", "note": "[LY171883]", "values": [
      {"measurement": "Numbers of myofibroblasts", "setting": "[1]; non-specific PPAR agonist", "value": "increase the numbers of myofibroblasts"}
    ]},
    {"molecule": "CCCCC/C=C\\C/C=C\\CCCCCCCC(=O)O", "note": "[Linoleic acid]", "values": [
      {"measurement": "EC50", "setting": "[2]; [7]", "value": "~20", "unit": "µM"}
    ]},
    {"molecule": "O=C[C@@H](O)[C@@H](O)[C@H](O)[C@H](O)COP(=O)(O)O", "note": "[mannose-6-phosphate, reference compound]", "values": [
      {"measurement": "Induction of myofibroblast differentiation in GFD medium", "setting": "[4]; GFD plus 100 μM or 10 μM M-6-P, 13 days (FIG. 1)", "value": "inhibits the induction of myofibroblast differentiation"},
      {"measurement": "Induction of myofibroblast differentiation in GFD medium", "setting": "[5]; GFD plus 100 μM or 10 μM M-6-P, 13 days (FIG. 2)", "value": "inhibits the induction of myofibroblast differentiation"}
    ]},
    {"molecule": "IGF-I: insulin-like Growth Factor-I", "values": [
      {"measurement": "Number of myofibroblasts - percentage of total cell population", "setting": "[6]; GF depleted medium + 1 ng/ml", "value": "40.79 percentage of total cell popul"},
      {"measurement": "Number of myofibroblasts - percentage of total cell population", "setting": "[6]; GF depleted medium + 10 ng/ml", "value": "43.90 percentage of total cell popul"},
      {"measurement": "Number of myofibroblasts - percentage of total cell population", "setting": "[6]; GF depleted medium + 50 ng/ml", "value": "51.51 percentage of total cell popul"},
      {"measurement": "Number of myofibroblasts - percentage of total cell population", "setting": "[6]; GF depleted medium + 100 ng/ml", "value": "47.00 percentage of total cell popul"}
    ]},
    {"molecule": "IGF-II: insulin-like Growth Factor II", "values": [
      {"measurement": "Number of myofibroblasts - percentage of total cell population", "setting": "[6]; GF depleted medium + 50 ng/ml", "value": "37.93 percentage of total cell popul"},
      {"measurement": "Number of myofibroblasts - percentage of total cell population", "setting": "[6]; GF depleted medium + 100 ng/ml", "value": "40.26 percentage of total cell popul"},
      {"measurement": "Number of myofibroblasts - percentage of total cell population", "setting": "[6]; GF depleted medium + 200 ng/ml", "value": "38.52 percentage of total cell popul"}
    ]},
    {"molecule": "PDGF", "values": [
      {"measurement": "Number of myofibroblasts - percentage of total cell population", "setting": "[6]; GF depleted medium + 25 ng/ml", "value": "50.95 percentage of total cell popul"},
      {"measurement": "Number of myofibroblasts - percentage of total cell population", "setting": "[6]; GF depleted medium + 50 ng/ml", "value": "52.84 percentage of total cell popul"},
      {"measurement": "Number of myofibroblasts - percentage of total cell population", "setting": "[6]; GF depleted medium + 100 ng/ml", "value": "53.35 percentage of total cell popul"}
    ]},
    {"molecule": "TGFβ1: transforming growth factor beta 1, inducer of myofibroblast differentiation", "values": [
      {"measurement": "Induction of myofibroblast differentiation", "setting": "[4]; [8]", "value": "induces a rapid (within 5 days) induction of myofibroblast differentiation"},
      {"measurement": "Induction of myofibroblast differentiation", "setting": "[5]; [8]", "value": "induces a rapid (within 5 days) induction of myofibroblast differentiation"}
    ]},
    {"molecule": "bFGF: basic fibroblast growth factor", "values": [
      {"measurement": "Number of myofibroblasts - percentage of total cell population", "setting": "[6]; GF depleted medium + 25 ng/ml", "value": "31.82 percentage of total cell popul"},
      {"measurement": "Number of myofibroblasts - percentage of total cell population", "setting": "[6]; GF depleted medium + 100 ng/ml", "value": "34.21 percentage of total cell popul"}
    ]}
  ]
}
